The test system of data set [1] is S. aureus. Nature of the data set: Stability at different temperatures and pH, read out by inhibition zone. To be noted: 4 µg/mL peptide, antibacterial activity against S. aureus by inhibition zone. The data set is classed as physicochemical. The protocol:
(§1) The inhibition zone method was performed as described in a previous study with slight modifications. Fifty microliters of the bacterial solution was mixed with 15 mL lysogeny broth, and the inhibition zone of the six bacteria was determined by drilling after coagulation. The stability of PMAP-37(F34-R) against S. aureus was determined using the inhibition zone method. 4 µg/mL PMAP-37(F-34R) was dissolved in buffers with different pH (2, 4, 6, 8, and 10), different proteases (papain, pepsin, trypsin, and protease K), and different temperatures (4, 25, 37, 65, and 90 °C). The stability profiles under various pH, proteases, and temperatures were determined. Untreated buffer was used as a negative control.

On the set-up of data set [2]: method as in PMID 31858653. Particulars: compared with antibiotic; cited from earlier work.
Data set [3] relates to S. aureus. Nature of the data set: Membrane permeability, PI staining. The format is cell-based. To be noted: 37 °C, 30 min with peptide, then PI; fluorescence microscope. The protocol:
The permeability assay was performed as previously described with slight modifications. S. aureus was until the OD600 reached 0.3–0.6, washed three times with PBS, and resuspended to 1 × 10^8 CFU/mL. The bacteria (100 µL) were mixed with 50 µL of antimicrobial peptide and incubated at 37 °C for 30 min, with PBS as a control. The supernatant was centrifuged and discarded, the bacteria were resuspended with PI-diluted dye, and stained at 37 °C for 30 min. After washing three times with PBS, the unbound stain was removed, and 10 µL of PBS was taken; an appropriate amount of […] was added onto the slide, the cover glass was observed by fluorescence microscope.

The subject of data set [4] is S. aureus. Nature of the data set: Total nucleotide leakage. The format is cell-based. To be noted: within 30 min after treatment; 37 °C, PBS; OD 260 nm of supernatant. As for the experimental part: The total nucleotide leakage experiment was performed according to a previously reported method with slight modifications. S. aureus was collected, washed twice, and resuspended in PBS to an OD600 of 0.8. Antimicrobial peptides were added and incubated at 37 °C for various durations. The bacterial solution was centrifuged to remove S. aureus. The OD of the supernatant was recorded at a wavelength of 260 nm.

Data set [5] deals with S. aureus, Listeria monocytogenes, B. subtilis, Salmonella typhimurium, E. coli O157, E. coli. Nature of the data set: Inhibition zone method. The data set is classed as cell-based. To be noted: inhibition zone in LB agar; three Gram-positive and three Gram-negative bacteria; positive control 50 µg/mL gentamicin. As for the experimental part: as §1

Peptide text beside a SMILES is read from it.

Take `CC[C@H](C)[C@H](NC(=O)[C@H](CCCNC(=N)N)NC(=O)[C@H](CCC(=O)O)NC(=O)[C@@H](NC(=O)[C@H](CCCCN)NC(=O)[C@H](CCC(=O)O)NC(=O)CNC(=O)[C@H](CC(C)C)NC(=O)[C@H](CCCNC(=N)N)NC(=O)[C@H](CCCNC(=N)N)NC(=O)CNC(=O)[C@H](CCCNC(=N)N)NC(=O)[C@H](CC(=O)O)NC(=O)[C@H](CO)NC(=O)[C@H](CC(C)C)NC(=O)[C@H](Cc1ccccc1)NC(=O)[C@H](CC(=O)O)NC(=O)[C@H](CCCNC(=N)N)NC(=O)[C@H](CC(C)C)NC(=O)[C@H](CCCNC(=N)N)NC(=O)[C@H](CO)NC(=O)[C@H](CC(C)C)NC(=O)[C@H](CC(C)C)NC(=O)CN)[C@@H](C)CC)C(=O)NCC(=O)N[C@@H](CCC(N)=O)C(=O)N[C@@H](CCCCN)C(=O)N[C@H](C(=O)N[C@@H](CCCCN)C(=O)N[C@@H](CC(=O)O)C(=O)N[C@@H](CC(C)C)C(=O)N[C@@H](CO)C(=O)N[C@@H](CCC(=O)O)C(=O)N[C@@H](CCCNC(=N)N)C(=O)N[C@@H](Cc1ccccc1)C(=O)N[C@@H](CCC(N)=O)C(=O)N[C@@H](CO)C(=O)O)[C@@H](C)CC` [PMAP-37(F34-R)] (H-GLLSRLRDFLSDRGRRLGEKIERIGQKIKDLSERFQS-OH; N-terminus and C-terminus assumed): in data set [1] (4, 25, 37, 65 °C), the “stability at other temperatures” value was “maintained good stability”. Further, in data set [1] (90 °C), the “stability at high temperature” value is “partially affected”. Besides, the “stability at other pH” value in data set [1] (pH 2, 4, 6, 8 buffers) was “maintained good stability”. Moreover, the “stability in strong base” value in data set [1] (pH = 10 buffer) is recorded as “partially affected”. The “efficacy in animal experiments” value in data set [2] was “comparable to that of ceftifol sodium”. In data set [3], the “PI staining (membrane integrity)” value is “extensive cell death”. In data set [4], the nucleotide leakage entry is listed as “increased significantly”. Also, the “inhibitory effect (inhibition zone)” value in data set [5] is given as “inhibited all six bacteria tested”.

These data come from article PMC10464103, “Antibacterial peptide PMAP-37(F34-R), expressed in Pichia pastoris, is effective against pathogenic bacteria and preserves plums” (Microbial Cell Factories, 2023).
